Tests used:
wheat = assay: Test B pre/postemergence wheat; type: in vivo, Triticum aestivum
How it was run: (§1)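 Test chemicals in a non-phytotoxic solvent mixture with surfactant were sprayed preemergence onto planted seeds and postemergence onto plants 2 to 18 cm tall (1- to 4-leaf stage). After twelve to sixteen days in a greenhouse, injury was visually rated against untreated controls from 0 (no effect) to 10 (complete control).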

crabgrass = assay: Test B pre/postemergence crabgrass; type: in vivo, Digitaria sanguinalis
How it was run: as §1

smallflower flatsedge = assay: Test B flood test smallflower flatsedge; type: in vivo, Cyperus difformis
How it was run: (§2)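 Read-out is a visual response score from 0 (no effect) to 10 (complete control), assigned by comparison with untreated controls. Treatment was applied at the 2-leaf stage, and plants stayed in the greenhouse for twelve to sixteen days before scoring.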

bamyardgrass = assay: Test B flood test barnyardgrass; type: in vivo, Echinochloa crus-galli
How it was run: as §2

corn = assay: Test B pre/postemergence corn; type: in vivo, Zea mays
How it was run: as §1

bedstraw = assay: Test B pre/postemergence bedstraw; type: in vivo, Galium aparine
How it was run: as §1

blackgrass = assay: Test B pre/postemergence blackgrass; type: in vivo, Alopecurus myosuroides
How it was run: as §1

purple nutsedge = assay: Test B pre/postemergence purple nutsedge; type: in vivo, Cyperus rotundus
How it was run: as §1

soybean = assay: Test B pre/postemergence soybean; type: in vivo, Glycine max
How it was run: as §1

cocklebur = assay: Test B pre/postemergence cocklebur; type: in vivo, Xanthium strumarium
How it was run: as §1

velvetleaf = assay: Test B pre/postemergence velvetleaf; type: in vivo, Abutilon theophrasti
How it was run: as §1

surinam grass = assay: Test B pre/postemergence surinam grass; type: in vivo, Brachiaria decumbens
How it was run: as §1

sugar beet = assay: Test B pre/postemergence sugar beet; type: in vivo, Beta vulgaris
How it was run: as §1

rape = assay: Test B pre/postemergence rape; type: in vivo, Brassica napus
How it was run: as §1

pigweed = assay: Test B pre/postemergence pigweed; type: in vivo, Amaranthus retroflexus
How it was run: as §1

wild oat = assay: Test B pre/postemergence wild oat; type: in vivo, Avena fatua
How it was run: as §1

[1] = Postemergence, Rate 62 g/ha, scale 0 to 10, 0 is no effect, 10 is complete control
[2] = Postemergence, Rate 250 g/ha, scale 0 to 10, 0 no effect, 10 complete control
[3] = Preemergence, Rate 62 g/ha, scale 0 to 10 (0 no effect, 10 complete control)
[4] = Preemergence, Rate 125 g/ha, scale 0 to 10 (0 no effect, 10 complete control)
[5] = Preemergence, Rate 250 g/ha, scale of 0 to 10 where 0 is no effect and 10 is complete control
[6] = Preemergence, Rate 500 g/ha, scale 0 (no effect) to 10 (complete control)
[7] = Rate 125 g/ha, Postemergence, scale 0 to 10, 0 no effect, 10 complete control
[8] = Rate 500 g/ha, Postemergence, scale 0 to 10, 0 no effect, 10 complete control
[9] = Rate 125 g/ha, Postemergence section (flood test species), scale 0 to 10, 0 no effect, 10 complete control
[10] = Rate 500 g/ha, listed under Postemergence (flood test species), scale 0 to 10, 0 no effect, 10 complete control
[11] = flood test, listed under Postemergence, Rate 250 g/ha, scale 0 to 10, 0 no effect, 10 complete control

Cc1nn(C)c(C)c1-n1c(=O)on(C(=O)N(c2ccc(F)cc2)C(C)C)c1=O [Compound 75]
Wheat plant response rating (wheat; [1]): 0 | Wheat plant response rating (wheat; [2]): 2 | Wheat plant response rating (wheat; [3]): 0 | Plant response rating, Wheat (wheat; [4]): 0 | Plant response rating, Wheat (wheat; [5]): 0 | Wheat plant response rating (wheat; [6]): 3 | Wheat plant response rating (wheat; [7]): 0 | Wheat plant response rating (wheat; [8]): 4 | Crabgrass plant response rating (crabgrass; [1]): 0 | Crabgrass plant response rating (crabgrass; [2]): 9 | Crabgrass plant response rating (crabgrass; [3]): 3 | Plant response rating, Crabgrass (crabgrass; [4]): 8 | Plant response rating, Crabgrass (crabgrass; [5]): 10 | Crabgrass plant response rating (crabgrass; [6]): 10 | Crabgrass plant response rating (crabgrass; [7]): 2 | Crabgrass plant response rating (crabgrass; [8]): 9 | S. Flatsedge plant response rating (smallflower flatsedge; [1]): 0 | S. Flatsedge plant response rating (smallflower flatsedge; [9]): 0 | S. Flatsedge plant response rating (smallflower flatsedge; [10]): 0 | S. Flatsedge plant response rating (smallflower flatsedge; [11]): 0 | Barnyardgrass plant response rating (bamyardgrass; [1]): 0 | Barnyardgrass plant response rating (bamyardgrass; [9]): 0 | Barnyardgrass plant response rating (bamyardgrass; [10]): 0 | Barnyardgrass plant response rating (bamyardgrass; [11]): 0 | Corn plant response rating (corn; [1]): 0 | Corn plant response rating (corn; [2]): 0 | Corn plant response rating (corn; [3]): 0 | Plant response rating, Corn (corn; [4]): 0 | Plant response rating, Corn (corn; [5]): 0 | Corn plant response rating (corn; [6]): 0 | Corn plant response rating (corn; [7]): 0 | Corn plant response rating (corn; [8]): 0 | Bedstraw plant response rating (bedstraw; [1]): 0 | Bedstraw plant response rating (bedstraw; [2]): 0 | Bedstraw plant response rating (bedstraw; [3]): 0 | Plant response rating, Bedstraw (bedstraw; [4]): 0 | Plant response rating, Bedstraw (bedstraw; [5]): 0 | Bedstraw plant response rating (bedstraw; [6]): 0 | Bedstraw plant response rating (bedstraw; [7]): 0 | Bedstraw plant response rating (bedstraw; [8]): 0 | Blackgrass plant response rating (blackgrass; [1]): 3 | Blackgrass plant response rating (blackgrass; [2]): 7 | Blackgrass plant response rating (blackgrass; [3]): 0 | Plant response rating, Blackgrass (blackgrass; [4]): 1 | Plant response rating, Blackgrass (blackgrass; [5]): 7 | Blackgrass plant response rating (blackgrass; [6]): 9 | Blackgrass plant response rating (blackgrass; [7]): 5 | Blackgrass plant response rating (blackgrass; [8]): 9 | Nutsedge plant response rating (purple nutsedge; [1]): 0 | Nutsedge plant response rating (purple nutsedge; [2]): 0 | Nutsedge plant response rating (purple nutsedge; [3]): 0 | Plant response rating, Nutsedge (purple nutsedge; [4]): 0 | Plant response rating, Nutsedge (purple nutsedge; [5]): 0 | Nutsedge plant response rating (purple nutsedge; [6]): 0 | Nutsedge plant response rating (purple nutsedge; [7]): 0 | Nutsedge plant response rating (purple nutsedge; [8]): 0 | Soybean plant response rating (soybean; [1]): 1 | Soybean plant response rating (soybean; [2]): 2 | Soybean plant response rating (soybean; [3]): 0 | Plant response rating, Soybean (soybean; [4]): 0 | Plant response rating, Soybean (soybean; [5]): 0 | Soybean plant response rating (soybean; [6]): 0 | Soybean plant response rating (soybean; [7]): 1 | Soybean plant response rating (soybean; [8]): 2 | Cocklebur plant response rating (cocklebur; [1]): 0 | Cocklebur plant response rating (cocklebur; [2]): 1 | Cocklebur plant response rating (cocklebur; [3]): 0 | Plant response rating, Cocklebur (cocklebur; [4]): 0 | Plant response rating, Cocklebur (cocklebur; [5]): 0 | Cocklebur plant response rating (cocklebur; [6]): 0 | Cocklebur plant response rating (cocklebur; [7]): 0 | Cocklebur plant response rating (cocklebur; [8]): 1 | Velvetleaf plant response rating (velvetleaf; [1]): 0 | Velvetleaf plant response rating (velvetleaf; [2]): 0 | Velvetleaf plant response rating (velvetleaf; [3]): 0 | Plant response rating, Velvetleaf (velvetleaf; [4]): 0 | Plant response rating, Velvetleaf (velvetleaf; [5]): 0 | Velvetleaf plant response rating (velvetleaf; [6]): 0 | Velvetleaf plant response rating (velvetleaf; [7]): 0 | Velvetleaf plant response rating (velvetleaf; [8]): 0 | B. signalgrass plant response rating (surinam grass; [1]): 2 | B. signalgrass plant response rating (surinam grass; [2]): 6 | B. signalgrass plant response rating (surinam grass; [3]): 0 | Plant response rating, B. signalgrass (surinam grass; [4]): 1 | Plant response rating, B. signalgrass (surinam grass; [5]): 2 | B. signalgrass plant response rating (surinam grass; [6]): 8 | B. signalgrass plant response rating (surinam grass; [7]): 3 | B. signalgrass plant response rating (surinam grass; Rate 500 g/ha, Postemergence, scale of 0 to 10 where 0 is no effect and 10 is complete control): 8 | Sugarbeets plant response rating (sugar beet; [1]): 0 | Sugarbeets plant response rating (sugar beet; [2]): 0 | Sugarbeets plant response rating (sugar beet; [3]): 0 | Plant response rating, Sugarbeets (sugar beet; [4]): 0 | Plant response rating, Sugarbeets (sugar beet; [5]): 0 | Sugarbeets plant response rating (sugar beet; [6]): 4 | Sugarbeets plant response rating (sugar beet; [7]): 0 | Sugarbeets plant response rating (sugar beet; [8]): 0 | Rape plant response rating (rape; [1]): 0 | Rape plant response rating (rape; [2]): 0 | Rape plant response rating (rape; [3]): 0 | Plant response rating, Rape (rape; [4]): 0 | Plant response rating, Rape (rape; [5]): 0 | Rape plant response rating (rape; [6]): 10 | Rape plant response rating (rape; [7]): 0 | Rape plant response rating (rape; [8]): 0 | Redroot pigweed plant response rating (pigweed; [1]): 0 | Redroot pigweed plant response rating (pigweed; [2]): 0 | Redroot pigweed plant response rating (pigweed; [3]): 0 | Plant response rating, Redroot pigweed (pigweed; [4]): 2 | Plant response rating, Redroot pigweed (pigweed; [5]): 7 | Redroot pigweed plant response rating (pigweed; [6]): 10 | Redroot pigweed plant response rating (pigweed; [7]): 0 | Redroot pigweed plant response rating (pigweed; [8]): 0 | Wild oats plant response rating (wild oat; [1]): 0 | Wild oats plant response rating (wild oat; [2]): 0 | Wild oats plant response rating (wild oat; [3]): 0 | Plant response rating, Wild oats (wild oat; [4]): 0 | Plant response rating, Wild oats (wild oat; [5]): 8 | Wild oats plant response rating (wild oat; [6]): 8 | Wild oats plant response rating (wild oat; [7]): 0 | Wild oats plant response rating (wild oat; [8]): 2

— patent US6737383B1, “Herbicidal oxadiazolidines” (priority 1999, dated 2004)
